In the experiment the target is T1, human PAD4 (Homo sapiens, UniProt Q9UM07).
T1 construct: human PAD4 (NM_012387), A2-P663, was PCR amplified; His-SUMO (N, cleaved yes); made in house; host or cells: E. coli BL21(DE3)
Nature of the experiment: In vitro PAD4 BAEE biochemical assay. The following applies: BAEE substrate 3 mM, 5 nM PAD4, 2 mM calcium chloride; geometric mean of multiple experiments. An outline of the steps:
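Ammonia produced by BAEE deimination (3 mM substrate, 2 h, 25 °C) was read as fluorescent isoindole after o-phthalaldehyde/DTT derivatization, ex 405 nm/em 535 nm. Human PAD4 at 5 nM final, 2 mM calcium, pH 7.6 MOPS; compound preincubated 30 min. IC50s, normalized to BB-Cl-Amidine and DMSO controls, were geometric-mean averaged.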

This note sets out measurements from US11976083B2, “Inhibitors of peptidylarginine deiminases” (Gilead Sciences, Inc., priority 2020, dated 2024).

T1 sequence (Q9UM07 2-663): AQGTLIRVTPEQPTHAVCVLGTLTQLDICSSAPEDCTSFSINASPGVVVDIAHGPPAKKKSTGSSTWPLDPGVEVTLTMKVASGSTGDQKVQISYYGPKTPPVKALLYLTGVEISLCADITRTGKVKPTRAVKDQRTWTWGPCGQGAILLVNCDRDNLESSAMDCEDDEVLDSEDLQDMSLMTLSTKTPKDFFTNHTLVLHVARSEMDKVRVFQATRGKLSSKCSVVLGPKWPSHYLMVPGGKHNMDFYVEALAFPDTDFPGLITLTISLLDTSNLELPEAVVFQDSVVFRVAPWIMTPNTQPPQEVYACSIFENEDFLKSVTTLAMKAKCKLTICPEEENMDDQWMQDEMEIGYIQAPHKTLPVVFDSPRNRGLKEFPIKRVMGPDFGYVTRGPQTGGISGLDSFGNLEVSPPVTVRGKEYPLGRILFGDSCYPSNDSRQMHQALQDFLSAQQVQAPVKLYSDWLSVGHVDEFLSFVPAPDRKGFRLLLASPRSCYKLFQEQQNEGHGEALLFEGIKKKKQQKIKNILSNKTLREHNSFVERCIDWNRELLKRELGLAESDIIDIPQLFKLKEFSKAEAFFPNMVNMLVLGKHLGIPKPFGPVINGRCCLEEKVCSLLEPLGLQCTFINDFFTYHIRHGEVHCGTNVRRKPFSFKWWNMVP

Usually IC50 stands for the concentration that gives 50% inhibition. `COc1cc(C(=O)N2CCC[C@@H](N)C2)cc2nc(-c3cc4ccc5nc4n3CCCC[C@H]3C[C@@H]3C(=O)N[C@@H]5C)n(C)c12` [Example 151, (2~{R},5~{S},7~{S})-13-[5-[(3~{R})-3-aminopiperidine-1-carbonyl]-7-methoxy-1-methyl-benzimidazol-2-yl]-2-methyl-3,12,18-triazatetracyclo[10.5.2.0^{5,7}.0^{15,19}] nonadeca-1(18),13,15(19),16-tetraen-4-one]: the IC50 was 123 nM. As for `C[C@H]1NC(=O)[C@]2(C)C[C@H]2CCCC(F)(F)Cn2c(-c3nc4cc(C(=O)N[C@H]5CNCC[C@@H]5F)c(F)cc4n3C)cc3ccc1nc32` [Example 553, 2-[(2~{R},5~{R},7~ {R})-11,11-difluoro-2,5-dimethyl-4-oxo-3,13,19-triazatetracyclo [11.5.2.0^{5,7}.0^ {16,20}]icosa-1(19),14, 16(20),17-tetraen-14-yl]-6-fluoro-~{N}-[(3~{S}, 4~{S})-4-fluoro-3-piperidyl]-1-methyl-benzimidazole-5-carboxamide], the figure is 47 nM; as for `COC(=O)[C@H]1CC[C@@H](NC(=O)c2cc(OC)c3c(c2)nc(-c2cc4ccc5nc4n2CCCCCCC(C)(C)C(=O)N[C@@H]5C)n3C)CN1` [Example 71, methyl (2~{R},5~{R})-5-[[7-methoxy-1-methyl-2-[(11~{R})-8,8,11-trimethyl-9-oxo-1,10,19-triazatricyclo[10.5.2.0^{15,18}]nonadeca-12(19),13,15(18),16-tetraen-17-yl]benzimidazole-5-carbonyl]amino]piperidine-2-carboxylate], 560 nM; as for `C[C@H]1NC(=O)[C@@H]2C[C@H]2CCCCCn2c(-c3nc4cc(C(=O)N5C[C@H](N)[C@@H]6CC[C@H]5C6)cc(OC(F)F)c4n3C3CC3)cc3ccc1nc32` [Example 759, (2~{R},5~{R},7~{R})-14-[5-[(1~{S},4~{R},5~{R})-4-amino-2-azabicyclo[3.2.1]octane-2-carbonyl]-1-cyclopropyl-7-(difluoromethoxy)benzimidazol-2-yl]-2-methyl-3,13,19-triazatetracyclo[11.5.2.0^ {5,7}.0^{16,20}]icosa-1(19), 14,16(20),17-tetraen-4-one], 17 nM. Take `C[C@H]1NC(=O)[C@@H]2C[C@H]2CCCCCn2c(-c3nc4cc(C(=O)N[C@H]5CNCC[C@@H]5F)c(F)cc4n3CCC(N)=O)cc3ccc1nc32` [Example 428, 1-(3-amino-3-oxo-propyl)-6-fluoro-~ {N}-[(3~{S},4~{S})-4-fluoro-3-piperidyl]-2-[(2~{R},5~{R},7~{R})-2-methyl-4-oxo-3,13,19-triazatetracyclo[11.5.2.0^{5,7}.0^{16,20}]icosa-1(19),14,16(20),17-tetraen-14-yl]benzimidazole-5-carboxamide]: the IC50 came out at 29 nM. As for `COc1cc(C(=O)N2[C@H]3CC[C@@H]2[C@H](N)C3)cc2nc(-c3cc4ccc5nc4n3CCCCCCOc3ccccc3C(=O)N[C@@H]5C)c(C)n12` [Example 213, (2~{R})-19-[7-[(1~{R},2~{R},4~{S})-2-amino-7-azabicyclo[2.2.1]heptane-7-carbonyl]-5-methoxy-3-methyl-imidazo[1,2-a]pyridin-2-yl]-2-methyl-11-oxa-3,18,24-triazatetracyclo[16.5.2.0^{5,10}.0^ {21,25}]pentacosa-1(24),5(10),6,8,19,21(25),22-heptaen-4-one], the figure is 385 nM; as for `COc1cc(C(=O)N2CCC[C@@H](N)[C@H]2C)cc2nc(-c3cc4ccc5nc4n3CCCCCCC(C)(C)C(=O)N[C@@H]5C)n(C)c12` [Example 15, (11~{R})-17-[5-[(2~{R},3~{R})-3-amino-2-methyl-piperidine-1-carbonyl]-7-methoxy-1-methyl-benzimidazol-2-yl]-8,8,11-trimethyl-1,10,19-triazatricyclo[10.5.2.0^{15,18}]nonadeca-12(19),13,15(18),16-tetraen-9-one], 60 nM. As for `C[C@H]1NC(=O)[C@](F)(c2cccc(Cl)n2)CCCCCCn2c(-c3nc4cc(C(=O)N5C[C@H](N)[C@@H]6CC[C@H]5C6)cc(F)c4n3C3CC3)cc3ccc1nc32` [Example 481, (8~{R},11~{R})-17-[5-[(1~{S},4~{R},5~{R})-4-amino-2-azabicyclo[3.2.1]octane-2-carbonyl]-1-cyclopropyl-7-fluoro-benzimidazol-2-yl]-8-(6-chloro-2-pyridyl)-8-fluoro-11-methyl-1,10,19-triazatricyclo[10.5.2.0^{15,18}]nonadeca-12(19),13,15(18),16-tetraen-9-one], the figure is 231 nM. Consider `CO[C@@H]1CCN(C(=O)c2cc(F)c3c(c2)nc(-c2cc4ccc5nc4n2CCCCCc2nccnc2C(=O)N[C@@H]5C)n3C2CC2)C[C@@H]1N` [Example 578, (2~{R})-17-[5-[(3~{S},4~ {R})-3-amino-4-methoxy-piperidine-1-carbonyl]-1-cyclopropyl-7-fluoro-benzimidazol-2-yl]-2-methyl-3,6,9,16,22-pentazatetracyclo[14.5.2.0^ {5,10}.0^{19,23}] tricosa-1(22),5(10),6,8,17, 19(23),20-heptaen-4-one], for which the IC50 worked out at 78 nM.

On to `COc1cc(C(=O)N2CCC[C@@H](N)C2)cn2nc(-c3cc4ccc5nc4n3CCCCCCCC(=O)N[C@@H]5C)c(C)c12` [Example 26, (11~{R})-17-[6-[(3~{R})-3-aminopiperidine-1-carbonyl]-4-methoxy-3-methyl-pyrazolo[1,5-a]pyridin-2-yl]-11-methyl-1,10,19-triazatricyclo[10.5.2.0^{15,18}]nonadeca-12(19),13,15(18),16-tetraen-9-one], for which the IC50 came out at 86 nM.

On to `COc1cc(C(=O)N2C[C@H](N)[C@@H]3CC[C@H]2C3)cc2nc(-c3cc4ccc5nc4n3CCCCCOC3(CC3)C(=O)N[C@@H]5C)n(C3CC3)c12` [Example 904, (11~{R})-17-[5-[(1~{S),4~{R}, 5~{R})-4-amino-2-azabicyclo [3.2.1]octane-2-carbonyl]-1-cyclopropyl-7-methoxy-benzimidazol-2-yl]-11-methyl-spiro[7-oxa-1,10,19-triazatricyclo[10.5.2.0^{15,18}]nonadeca-12(19), 13,15(18),16-tetraene-8,1′-cyclopropane]-9-one], for which the IC50 turned out to be 101 nM.

In the case of `COc1cc(C(=O)N[C@@H]2CNCCC2(F)F)cc2nc(-c3cc4ccc5nc4n3CCCCCCC(C)(C)C(=O)N[C@@H]5C)n(C)c12` [Example 296, ~{N}-[(3~{R})-4,4-difluoro-3-piperidyl]-7-methoxy-1-methyl-2-[(11~{R})-8,8,11-trimethyl-9-oxo-1,10,19-triazatricyclo[10.5.2.0^{15,18}]nonadeca-12(19),13,15(18),16-tetraen-17-yl]benzimidazole-5-carboxamide], the IC50 was 23700 nM. For the compound `COC[C@]12C[C@H]1CCCCCn1c(-c3nc4cc(C(=O)N5CC[C@@H](OC)[C@@H](N)C5)cc(OC)c4n3C)cc3ccc(nc31)[C@@H](C)NC2=O` [Example 864, (2~{R},5~{S),7~{R})-14-[5-[(3~{S},4~{R})-3-amino-4-methoxy-piperidine-1-carbonyl]-7-methoxy-1-methyl-benzimidazol-2-yl]-5-(methoxymethyl)-2-methyl-3,13,19-triazatetracyclo [11.5.2.0^{5,7}.0^{16,20}] icosa-1(19),14,16(20), 17-tetraen-4-one], the IC50 came to 68 nM. As for `COc1cc(C(=O)N2CCC[C@@H](N)C2)cc2nc(-c3cc4ccc5nc4n3CCCCCCCCCC(=O)N[C@@H]5C)c(C)n12` [Example 284, (13~{R})-19-[7-[(3~{R})-3-aminopiperidine-1-carbonyl]-5-methoxy-3-methyl-imidazo[1,2-a]pyridin-2-yl]-13-methyl-1,12,21-triazatricyclo[12.5.2.0^{17,20}]henicosa-14(21),15,17(20),18-tetraen-11-one], the figure is 52 nM; as for `C[C@H]1NC(=O)c2ccc(Cl)nc2CCCCCn2c(-c3nc4cc(C(=O)N5C[C@H]6CC[C@@H]5[C@@H]6N)cc(F)c4n3C3CC3)cc3ccc1nc32` [Example 798, (2~{R})-17-[5-[(1~{R},4~{R}, 7~{R})-7-amino-2-azabicyclo [2.2.1]heptane-2-carbonyl]-1-cyclopropyl-7-fluoro-benzimidazol-2-yl]-8-chloro-2-methyl-3,9,16,22-tetrazatetracyclo[14.5.2.0^ {5,10}.0^{19,23}]tricosa-1(21),5(10),6,8,17,19,22-heptaen-4-one], 17 nM; as for `COc1cc(C(=O)N2C[C@H](N)[C@@H]3CC[C@H]2C3)cc2nc(-c3cc4ccc5nc4n3CCCCCc3nc(Cl)ccc3C(=O)NC5(C)C)n(C)c12` [Example 932, 17-[5-[(1~{S},4~{R},5~{R})-4-amino-2-azabicyclo[3.2.1]octane-2-carbonyl]-7-methoxy-1-methyl-benzimidazol-2-yl]-8-chloro-2,2-dimethyl-3,9,16,22-tetrazatetracyclo[14.5.2.0^ {5,10}.0^{19,23}]tricosa-1(21),5(10),6,8,17,19,22-heptaen-4-one], 58 nM.

Consider `C[C@H]1NC(=O)C(C)(C)CCCCCCn2c(-c3nc4cc(C(=O)N[C@H]5CNCC[C@@H]5F)c(F)cc4n3C3C[C@@H]3F)cc3ccc1nc32` (stereo partly drawn) [Example 602, (1~{R})-6-fluoro-1-[(2~{S})-2-fluorocyclopropyl]-~{N}-[(3~{S},4~{S})-4-fluoro-3-piperidyl]-2-[(11~{R})-8,8,11-trimethyl-9-oxo-1,10,19-triazatricyclo [10.5.2.0^{15,18}]nonadeca-12,14,16,18-tetraen-17-yl]benzimidazole-5-carboxamide], for which the IC50 amounted to 97 nM. With `C[C@H]1NC(=O)c2c(F)cncc2CCCCCn2c(-c3nc4cc(C(=O)N[C@H]5CNCC[C@@H]5F)c(F)cc4n3C3CC3)cc3ccc1nc32` [Example 355, 1-cyclopropyl-6-fluoro-2-[(2~{R})-6-fluoro-2-methyl-4-oxo-3,8,16,22-tetrazatetracyclo[14.5.2.0^{5,10}.0^{19,23}]tricosa-1(22),5,7,9,17,19(23),20-heptaen-17-yl]~{N}-[(3~{S},4~{S})-4-fluoro-3-piperidyl]benzimidazole-5-carboxamide], the IC50 came out at 18 nM.
